The assay deals with P388 leukemia ip, CD2F1 mice, survival T/C. Kind of assay: NCI In Vivo Anticancer Drug Screen. Data for tumor model P388 Leukemia (intraperitoneal) in CD2F1 (CDF1) mice. The conditions noted are these: endpoint: median survival time, higher = longer survival. Summed up: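 Mice carrying the transplanted tumor received test compound or vehicle. Survival was recorded in each group, and the value is the treated-group measurement divided by that of the vehicle-treated control group.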

Setting [1] is: dose: 6.25 mg/kg/injection, schedule: Q01DX009 (ip), vehicle: water.
[2] abbreviates: dose: 12.5 mg/kg/injection, schedule: Q01DX009 (ip), vehicle: water.
Setting [3] is: dose: 100.0 mg/kg/injection, schedule: Q01DX009 (ip), vehicle: saline.

The record followed here is PubChem BioAssay AID330 (DTP/NCI, 2004).

Where “and” joins values, the source holds several entries; their conditions need not be identical. Equal entries are not always repeated. Toxic doses and inconclusive results are not listed.

Consider `Cc1cnc(C=O)c2cccc([N+](=O)[O-])c12`, for which the T/C (dose: 50.0 mg/kg/injection, schedule: Q01DX009 (ip), vehicle: Klucel (hydroxypropylcellulose) (HPC)) is 105 % of control and the T/C (dose: 100.0 mg/kg/injection, schedule: Q01DX009 (ip), vehicle: Klucel (hydroxypropylcellulose) (HPC)) is 112 % of control.

For `CC(C)(C)N1COC2CCCCC21` (centres undefined), the T/C was 106 % of control (dose: 15.0 mg/kg/injection, schedule: Q01DX005 (ip), vehicle: Klucel (hydroxypropylcellulose) (HPC)); 102 % of control (dose: 30.0 mg/kg/injection, schedule: Q01DX005 (ip), vehicle: Klucel (hydroxypropylcellulose) (HPC)); 106 % of control and 117 % of control (dose: 60.0 mg/kg/injection, schedule: Q01DX005 (ip), vehicle: Klucel (hydroxypropylcellulose) (HPC)); 106 % of control (dose: 240.0 mg/kg/injection, schedule: Q01DX005 (ip), vehicle: Klucel (hydroxypropylcellulose) (HPC)).

On to `COc1cc(NC(C)CCCN)c2ncc(Br)cc2c1` (centres undefined), for which the T/C was 95 % of control (dose: 6.25 mg/kg/injection, schedule: Q01DX005 (ip), vehicle: saline) and 91 % of control (dose: 12.5 mg/kg/injection, schedule: Q01DX005 (ip), vehicle: saline).

For the compound `Cc1ccc(S(=O)(=O)N/N=C/c2ccsc2)cc1`, the T/C reads like this: (dose: 100.0 mg/kg/injection, schedule: Q04DX003 (ip), vehicle: Klucel (hydroxypropylcellulose) (HPC)) 92 % of control; (dose: 200.0 mg/kg/injection, schedule: Q04DX003 (ip), vehicle: Klucel (hydroxypropylcellulose) (HPC)) 106 % of control; (dose: 400.0 mg/kg/injection, schedule: Q04DX003 (ip), vehicle: Klucel (hydroxypropylcellulose) (HPC)) 100 % of control.

Regarding `COc1cc2c(c(OC)c1OC)-c1ccc(S(C)(=O)=O)c(=O)cc1[C@@H](NC(C)=O)CC2`, the T/C is 105 % of control and 106 % of control (dose: 0.78 mg/kg/injection, schedule: Q01DX009 (ip), vehicle: Klucel (hydroxypropylcellulose) (HPC)); 105 % of control and 120 % of control (dose: 1.56 mg/kg/injection, schedule: Q01DX009 (ip), vehicle: Klucel (hydroxypropylcellulose) (HPC)); 106 % of control and 111 % of control (dose: 3.12 mg/kg/injection, schedule: Q01DX009 (ip), vehicle: Klucel (hydroxypropylcellulose) (HPC)); 115 % of control (dose: 6.25 mg/kg/injection, schedule: Q01DX009 (ip), vehicle: Klucel (hydroxypropylcellulose) (HPC)); 105 % of control and 122 % of control (dose: 12.5 mg/kg/injection, schedule: Q01DX009 (ip), vehicle: Klucel (hydroxypropylcellulose) (HPC)); 108 % of control (dose: 25.0 mg/kg/injection, schedule: Q01DX009 (ip), vehicle: Klucel (hydroxypropylcellulose) (HPC)).

As for `O=Cc1c(-c2ccccc2)sc2ccccc2c1=O`, the T/C (dose: 100.0 mg/kg/injection, schedule: Q04DX002 (ip), vehicle: saline with Tween-80) was 113 % of control; the T/C (dose: 200.0 mg/kg/injection, schedule: Q04DX002 (ip), vehicle: saline with Tween-80) is 98 % of control; the T/C (dose: 400.0 mg/kg/injection, schedule: Q04DX002 (ip), vehicle: saline with Tween-80) was 109 % of control.

As for `c1ccc2c(Oc3c4ccccc4nc4ccccc34)c3ccccc3nc2c1`, the T/C is, setting by setting: (dose: 50.0 mg/kg/injection, schedule: Q01DX005 (ip), vehicle: saline with Tween-80) 95 % of control; (dose: 100.0 mg/kg/injection, schedule: Q01DX005 (ip), vehicle: saline with Tween-80) 88 % of control; (dose: 200.0 mg/kg/injection, schedule: Q01DX005 (ip), vehicle: saline with Tween-80) 90 % of control.

Consider `N#CCCN(CCC#N)c1ccc(/C=C2\C(=O)N(c3ccc(S(=O)(=O)O)cc3)N=C2C(=O)O)cc1`, for which the T/C was 102 % of control (dose: 60.0 mg/kg/injection, schedule: Q01DX005 (ip), vehicle: saline with Tween-80); 94 % of control (dose: 120.0 mg/kg/injection, schedule: Q01DX005 (ip), vehicle: saline with Tween-80); 105 % of control (dose: 240.0 mg/kg/injection, schedule: Q01DX005 (ip), vehicle: saline with Tween-80).

`COc1cccc2c1C(=O)c1c(O)c3c(c(O)c1C2=O)CC(O)(/C(C)=N/NC(=O)C(=O)N/N=C(\C)C1(O)Cc2c(O)c4c(c(O)c2C(OC2CC(N)C(O)C(C)O2)C1)C(=O)c1c(OC)cccc1C4=O)CC3OC1CC(N)C(O)C(C)O1` (centres undefined): the T/C (dose: 1.56 mg/kg/injection, schedule: Q01DX009 (ip), vehicle: water) is 163 % of control and 166 % of control; the T/C (dose: 3.13 mg/kg/injection, schedule: Q01DX009 (ip), vehicle: water) is 180 % of control and 182 % of control; the T/C under setting [1] was 184 % of control and 219 % of control; the T/C under setting [2] is 88 % of control and 94 % of control.

In the case of `CC(C)=CCCC(C)C1(O)CCC(C)=CC1=O` (centres undefined), the T/C (dose: 12.5 mg/kg/injection, schedule: Q01DX005 (ip), vehicle: Klucel (hydroxypropylcellulose) (HPC)) is 96 % of control; the T/C (dose: 25.0 mg/kg/injection, schedule: Q01DX005 (ip), vehicle: Klucel (hydroxypropylcellulose) (HPC)) is 99 % of control; the T/C (dose: 50.0 mg/kg/injection, schedule: Q01DX005 (ip), vehicle: Klucel (hydroxypropylcellulose) (HPC)) was 94 % of control; the T/C (dose: 100.0 mg/kg/injection, schedule: Q01DX005 (ip), vehicle: Klucel (hydroxypropylcellulose) (HPC)) was 99 % of control.

As for `CCCCCCCCCCCCC[N+]1(CC)CCCCC1`, the T/C runs as follows: (dose: 0.78 mg/kg/injection, schedule: Q01DX009 (ip), vehicle: saline) 105 % of control; (dose: 1.56 mg/kg/injection, schedule: Q01DX009 (ip), vehicle: saline) 118 % of control; (dose: 3.12 mg/kg/injection, schedule: Q01DX009 (ip), vehicle: saline) 110 % of control.

Turning to `O=NNc1ccc(Oc2ccc(NN=O)cc2)cc1`, the T/C is, setting by setting: (dose: 3.12 mg/kg/injection, schedule: Q01DX009 (ip), vehicle: water) 96 % of control; under setting [1], 96 % of control; under setting [2], 92 % of control; (dose: 25.0 mg/kg/injection, schedule: Q01DX009 (ip), vehicle: water) 100 % of control and 93 % of control; (dose: 50.0 mg/kg/injection, schedule: Q01DX009 (ip), vehicle: water) 100 % of control and 93 % of control; (dose: 100.0 mg/kg/injection, schedule: Q01DX009 (ip), vehicle: water) 91 % of control. Besides, for the setting “dose: 200.0 mg/kg/injection, schedule: Q01DX009 (ip), vehicle: water”, the T/C is 88 % of control.

With `Nc1nc(N)c(N=O)c(N)n1`, the T/C was 104 % of control (dose: 44.0 mg/kg/injection, schedule: Q01DX009 (ip), vehicle: saline); 104 % of control (dose: 66.0 mg/kg/injection, schedule: Q01DX009 (ip), vehicle: saline); 104 % of control under setting [3]; 102 % of control (dose: 150.0 mg/kg/injection, schedule: Q01DX009 (ip), vehicle: saline).

Turning to `c1ccc(Sc2cccc3ccccc23)cc1`, the T/C (dose: 100.0 mg/kg/injection, schedule: Q04DX003 (ip), vehicle: saline with Tween-80) is 95 % of control; the T/C (dose: 200.0 mg/kg/injection, schedule: Q04DX003 (ip), vehicle: saline with Tween-80) is 109 % of control; the T/C (dose: 400.0 mg/kg/injection, schedule: Q04DX003 (ip), vehicle: saline with Tween-80) is 104 % of control.

In the case of `CCCCCCC(=O)/C=C/c1ccc(OC(=O)c2ccc([N+](=O)[O-])cc2)cc1`, the T/C runs as follows: (dose: 12.5 mg/kg/injection, schedule: Q01DX009 (ip), vehicle: saline) 105 % of control; (dose: 25.0 mg/kg/injection, schedule: Q01DX009 (ip), vehicle: saline) 100 % of control; (dose: 50.0 mg/kg/injection, schedule: Q01DX009 (ip), vehicle: saline) 103 % of control and 97 % of control; under setting [3], 92 % of control; (dose: 200.0 mg/kg/injection, schedule: Q01DX009 (ip), vehicle: saline) 92 % of control.

With `O=Nc1c(O)c(Cl)cc2ccccc12`, the T/C reads like this: (dose: 3.12 mg/kg/injection, schedule: Q01DX005 (ip), vehicle: saline with Tween-80) 101 % of control; (dose: 6.25 mg/kg/injection, schedule: Q01DX005 (ip), vehicle: saline with Tween-80) 103 % of control.

As to `COC(=O)C(NP(=O)(NC(C(=O)OC)c1ccccc1)N(CCCl)CCCl)c1ccccc1` (centres undefined), the T/C (dose: 7.5 mg/kg/injection, schedule: Q01DX005 (ip), vehicle: saline with Tween-80) was 102 % of control; the T/C (dose: 15.0 mg/kg/injection, schedule: Q01DX005 (ip), vehicle: saline with Tween-80) was 100 % of control; the T/C (dose: 30.0 mg/kg/injection, schedule: Q01DX005 (ip), vehicle: saline with Tween-80) was 101 % of control.

Consider `COc1cc2c(cc1OC)C1Cc3ccc4cc(OC)c(OC)cc4c3CN1CC2` (centres undefined), for which the T/C is 90 % of control (dose: 25.0 mg/kg/injection, schedule: Q01DX009 (ip), vehicle: saline with Tween-80); 100 % of control (dose: 50.0 mg/kg/injection, schedule: Q01DX009 (ip), vehicle: saline with Tween-80); 95 % of control (dose: 100.0 mg/kg/injection, schedule: Q01DX009 (ip), vehicle: saline with Tween-80).
